Measured values as given in PMC3114464 (Biochemistry, 2011).

Columns and labels:
Type in all cases: binding
[1] = target: IsdB-N2 (C-terminal NEAT domain of IsdB) (Staphylococcus aureus, UniProt Q7A656); assay: […] Å crystal structure
IsdB-N2 M362L = IsdB-N2 M362L (Staphylococcus aureus, UniProt Q7A656, M362L); assay: Trp fluorescence quenching
[2] = target: IsdA-N1 (IsdA NEAT domain) (Staphylococcus aureus, UniProt Q7A655)

C=CC1=C(C)C2=Cc3c(C=C)c(C)c4[n]3[Fe][n]3c(c(C)c(CCC(=O)O)c3=CC3=NC(=C4)C(C)=C3CCC(=O)O)=CC1=N2 [heme]
Kd [1]: < 380 nM
Kd (IsdB-N2 M362L): < 490 nM
stopped-flow Soret spectroscopy of heme transfer from holo-IsdB-N2 to apo-IsdA-N [2]: 82 ± 6 s^–1
